Active and inactive are the calls of the source. The rule behind the calls is not given here.
Assays:
[1] = Cytotoxicity against human MRC5 cells assessed as reduction in cell viability incubated for 6 days by Hoechst 33342 staining based microscopic analysis; settings: time 6 day
Human betaherpesvirus 5 [2] = assay: Antiviral activity against Human Cytomegalovirus infected in human MRC5 cells assessed as reduction in infection rate incubated for 6 days by Hoechst 33342 staining based microscopic analysis; type: functional, cell-based
Human betaherpesvirus 5 [3] = assay: Antiviral activity against human Cytomegalovirus infected in human ARPE-19 cells assessed as reduction in infection rate incubated for 10 days by Hoechst 33342 staining based microscopic analysis; type: functional, cell-based
[4] = Selectivity index, ratio of CC50 for human MRC5 cells to IC50 for human Cytomegalovirus infected in human MRC5 cells incubated for 6 days; type: toxicity, cell-based; settings: time 6 day, read-out: Ratio CC50/IC50
[5] = Selectivity index, ratio of CC50 for human MRC5 cells to IC50 for human Cytomegalovirus infected in human ARPE-19 cells incubated for 10 days; type: toxicity, cell-based; settings: time 6 day, read-out: Ratio CC50/IC50
Human betaherpesvirus 5 [6] = assay: Antiviral activity against human Cytomegalovirus infected in human ARPE-19 cells assessed as reduction in viral replication incubated for 13 days by Hoechst 33342 staining based microscopic analysis; type: functional, cell-based; settings: Human betaherpesvirus 5, ARPE-19, 312 h
[7] = Selectivity index, ratio of CC50 for human MRC5 cells to IC50 for human Cytomegalovirus infected in human ARPE-19 cells incubated for 13 days; type: toxicity, cell-based; settings: time 6 day, read-out: Ratio CC50/IC50
[8] = Cytotoxicity against human ARPE-19 cells assessed as reduction in cell viability incubated for 6 days by Hoechst 33342 staining based microscopic analysis; settings: time 6 day
Human betaherpesvirus 5 [9] = assay: Antiviral activity against human Cytomegalovirus infected in human ARPE-19 cells assessed as reduction in infection rate incubated for 6 days by Hoechst 33342 staining based microscopic analysis; type: functional, cell-based
Human betaherpesvirus 5 [10] = assay: Antiviral activity against human Cytomegalovirus harboring ANCHOR infected in human MRC5 cells assessed as reduction in infection rate at 0.15 to 0.625 uM incubated for 6 days by Hoechst 33342 staining based microscopic analysis relative to control; type: functional, cell-based; settings: dose microM 0.625-0.15, time 6.0 day
Human betaherpesvirus 5 [11] = assay: Antiviral activity against human Cytomegalovirus harboring ANCHOR infected in ARPE-19 cells assessed as reduction in replication by measuring UL44 expression at 0.6 to 0.15 uM by immunofluorescence B31assay; type: functional, cell-based; settings: dose microM 0.625-0.15, time 10.0 day
Human betaherpesvirus 5 [12] = assay: Antiviral activity against human Cytomegalovirus harboring ANCHOR infected in human MRC5 cells assessed as reduction in infection rate at 2.5 to 5 uM incubated for 6 days by Hoechst 33342 staining based microscopic analysis; type: functional, cell-based; settings: dose microM 2.5-5, time 6.0 day
Human betaherpesvirus 5 [13] = assay: Antiviral activity against human Cytomegalovirus harboring ANCHOR infected in human ARPE-19 cells assessed as reduction in infection rate at 1.25 to 2.5 uM incubated for 10 days by Hoechst 33342 staining based microscopic analysis; type: functional, cell-based; settings: dose microM 1.25-2.5, time 10.0 day
[14] = Drug uptake in rabbit RK13 cells incubated for 24 hrs by Hoechst staining based microscopic analysis; type: ADME, cell-based, Oryctolagus cuniculus; settings: rk13, 24 h
Human betaherpesvirus 5 [15] = assay: Antiviral activity against human Cytomegalovirus infected in human MRC5 cells assessed as reduction in viral replication incubated for 6 days by Hoechst 33342 staining based microscopic analysis; type: functional, cell-based; settings: Human betaherpesvirus 5, MRC5, 144 h
Human betaherpesvirus 5 [16] = assay: Antiviral activity against human Cytomegalovirus infected in human ARPE-19 cells assessed as reduction in infection rate incubated for 12 days by Hoechst 33342 staining based microscopic analysis; type: functional, cell-based; settings: Human betaherpesvirus 5, ARPE-19, 288 h
[17] = Selectivity index, ratio of CC50 for human MRC5 cells to IC50 for human Cytomegalovirus infected in human ARPE-19 cells incubated for 12 days; type: toxicity, cell-based; settings: time 6 day, read-out: Ratio CC50/IC50
[18] = Human betaherpesvirus 5, MRC5, 144 h, read-out: IC50
[19] = Human betaherpesvirus 5, ARPE-19, 240 h, read-out: IC50
[20] = Human betaherpesvirus 5, ARPE-19, 144 h, read-out: IC50

Row | SMILES | CC50 at 144 h [1] | IC50 (Human betaherpesvirus 5 [2]; [18]) | selectivity ratio at 144 h [4] | CC50 at 144 h [8] | IC50 (Human betaherpesvirus 5 [2]; mrc5) | IC50 (Human betaherpesvirus 5 [9]; arpe-19) | also measured
1 | O=[N+]([O-])c1ccc(-c2c3ccc([nH]3)c(-c3c(F)c(F)cc(F)c3F)c3nc(c4ccc([nH]4)c(-c4c(F)c(F)cc(F)c4F)c4ccc2[nH]4)C=C3)c(C(F)(F)F)c1 | 11 µM | 2.45 µM | 4.49 | – | – | – | IC50 (Human betaherpesvirus 5 [3]; [19]): 0.33 µM; selectivity ratio at 144 h [5]: 18.6
2 | O=[N+]([O-])c1ccc(-c2c3ccc([nH]3)c(-c3c(F)c(F)cc(F)c3F)c3nc(c4ccc([nH]4)c(-c4c(F)c(F)cc(F)c4F)c4ccc2[nH]4)C=C3)s1 | 4.17 µM | 0.27 µM | 15.6 | – | – | – | IC50 (Human betaherpesvirus 5 [6]): 0.13 µM; selectivity ratio at 144 h [7]: 385
3 | O=S(=O)(O)CCNc1c(F)c(F)c(-c2c3nc(c4ccc([nH]4)c(-c4c(F)c(F)c(NCCS(=O)(=O)O)c(F)c4F)c4ccc([nH]4)c(-c4c(F)c(F)c(NCCS(=O)(=O)O)c(F)c4F)c4ccc2[nH]4)C=C3)c(F)c1F | > 50 µM | – | – | > 50 µM | Not Active | Not Active | –
4 | Fc1ccccc1-c1c2nc(c3ccc([nH]3)c(-c3ccccc3F)c3ccc([nH]3)c(-c3ccccc3F)c3ccc1[nH]3)C=C2 | > 50 µM | – | – | > 50 µM | Not Active | Not Active | –
5 | Fc1cc(F)c(F)c(-c2c3nc(c4ccc([nH]4)c(-c4c(F)c(F)cc(F)c4F)c4ccc([nH]4)c(-c4cccnc4)c4ccc2[nH]4)C=C3)c1F | 12.8 µM | 1.1 µM | 11.6 | – | – | – | –
6 | Fc1cc(-c2c3nc(c4ccc([nH]4)c(-c4ccnc(F)c4)c4ccc([nH]4)c(-c4ccnc(F)c4)c4ccc2[nH]4)C=C3)ccn1 | 6.25 µM | 0.46 µM | 13 | 6.17 µM | – | – | IC50 (Human betaherpesvirus 5 [9]; [20]): 0.15 µM
7 | COc1ccc(F)c(-c2c3nc(c4ccc([nH]4)c(-c4cc(OC)ccc4F)c4ccc([nH]4)c(-c4cc(OC)ccc4F)c4ccc2[nH]4)C=C3)c1 | > 50 µM | – | – | > 50 µM | Not Active | Not Active | –
8 | CN(C)c1c(F)c(F)c(-c2c3ccc([nH]3)c(-c3c(F)c(F)cc(F)c3F)c3nc(c4ccc([nH]4)c(-c4c(F)c(F)cc(F)c4F)c4ccc2[nH]4)C=C3)c(F)c1F | > 50 µM | 2.11 µM | > 23.6 | – | – | – | IC50 (Human betaherpesvirus 5 [3]; arpe-19): Not Active
9 | Fc1cc(-c2c3ccc([nH]3)c(-c3c(F)c(F)cc(F)c3F)c3nc(c4ccc([nH]4)c(-c4c(F)c(F)cc(F)c4F)c4ccc2[nH]4)C=C3)ccn1 | 0.65 µM | 0.06 µM | 10.8 | – | – | – | IC50 (Human betaherpesvirus 5 [3]; [19]): 0.05 µM; selectivity ratio at 144 h [5]: 114
10 | Cc1ccc(F)c(-c2c3nc(c4ccc([nH]4)c(-c4cc(C)ccc4F)c4ccc([nH]4)c(-c4cc(C)ccc4F)c4ccc2[nH]4)C=C3)c1 | > 50 µM | – | – | > 50 µM | Not Active | Not Active | –
11 | Fc1cc(F)c(F)c(-c2c3nc(c4ccc([nH]4)c(-c4c(F)c(F)cc(F)c4F)c4ccc([nH]4)c(-c4c(F)c(F)nc(F)c4F)c4ccc2[nH]4)C=C3)c1F | 3.4 µM | 0.09 µM | 37.8 | – | – | – | IC50 (Human betaherpesvirus 5 [3]; [19]): 0.05 µM; Activity (Human betaherpesvirus 5 [10]): Active; Activity (Human betaherpesvirus 5 [11]): Active; selectivity ratio at 144 h [5]: 450
12 | Fc1cc(F)c(F)c(-c2c3nc(c4ccc([nH]4)c(-c4cc(F)cc(F)c4F)c4ccc([nH]4)c(-c4cc(F)cc(F)c4F)c4ccc2[nH]4)C=C3)c1 | > 50 µM | 6 µM | > 7 | > 50 µM | – | – | IC50 (Human betaherpesvirus 5 [9]; [20]): 3.8 µM; Activity (Human betaherpesvirus 5 [12]): inactive; Activity (Human betaherpesvirus 5 [13]): inactive; Drug uptake [14]: Active
13 | O=[N+]([O-])c1cc(F)cc(-c2c3ccc([nH]3)c(-c3c(F)c(F)cc(F)c3F)c3nc(c4ccc([nH]4)c(-c4c(F)c(F)cc(F)c4F)c4ccc2[nH]4)C=C3)c1 | 50 µM | – | – | – | Not Active | – | –
14 | Fc1cc(F)cc(-c2c3nc(c4ccc([nH]4)c(-c4cc(F)cc(F)c4)c4ccc([nH]4)c(-c4cc(F)cc(F)c4)c4ccc2[nH]4)C=C3)c1 | > 50 µM | – | – | > 50 µM | Not Active | Not Active | –
15 | Fc1cc(-c2c3nc(c4ccc([nH]4)c(-c4cc(F)c(F)c(F)c4)c4ccc([nH]4)c(-c4cc(F)c(F)c(F)c4)c4ccc2[nH]4)C=C3)cc(F)c1F | > 50 µM | 6.3 µM | > 7 | > 50 µM | – | Not Active | –
16 | Fc1ccc(F)c(-c2c3nc(c4ccc([nH]4)c(-c4cc(F)ccc4F)c4ccc([nH]4)c(-c4cc(F)ccc4F)c4ccc2[nH]4)C=C3)c1 | > 50 µM | – | – | > 50 µM | Not Active | Not Active | –
17 | Fc1cc(F)c(F)c(-c2c3ccc([nH]3)c(-c3c(F)c(F)c(F)c(F)c3F)c3nc(c4ccc([nH]4)c(-c4c(F)c(F)c(F)c(F)c4F)c4ccc2[nH]4)C=C3)c1F | 3.03 µM | 0.31 µM | 9.77 | – | – | – | IC50 (Human betaherpesvirus 5 [3]; [19]): 0.31 µM; selectivity ratio at 144 h [5]: 151
18 | Fc1cc(F)c(F)c(-c2c3ccc([nH]3)c(-c3c(F)c(F)cc(F)c3F)c3nc(c4ccc([nH]4)c(-c4c(F)c(F)cc(F)c4F)c4ccc2[nH]4)C=C3)c1 | 21.5 µM | 1.16 µM | 18.5 | – | – | – | IC50 (Human betaherpesvirus 5 [3]; [19]): 0.5 µM; Drug uptake [14]: Active; selectivity ratio at 144 h [5]: 62
19 | O=[N+]([O-])c1cc(F)cc(-c2c3nc(c4ccc([nH]4)c(-c4cc(F)cc([N+](=O)[O-])c4)c4ccc([nH]4)c(-c4c(F)c(F)cc(F)c4F)c4ccc2[nH]4)C=C3)c1 | 36.7 µM | – | – | – | Not Active | – | –
20 | CN(C)c1c(F)c(F)c(-c2c3nc(c4ccc([nH]4)c(-c4c(F)c(F)c(N(C)C)c(F)c4F)c4ccc([nH]4)c(-c4c(F)c(F)cc(F)c4F)c4ccc2[nH]4)C=C3)c(F)c1F | > 50 µM | 1.91 µM | > 26.2 | – | – | – | IC50 (Human betaherpesvirus 5 [3]; [19]): 1.88 µM; selectivity ratio at 144 h [5]: 26.6
21 | Fc1cc(F)c(-c2c3nc(c4ccc([nH]4)c(-c4c(F)cc(F)cc4F)c4ccc([nH]4)c(-c4c(F)cc(F)cc4F)c4ccc2[nH]4)C=C3)c(F)c1 | > 50 µM | – | > 9 | > 50 µM | – | Not Active | IC50 (Human betaherpesvirus 5 [15]): 5.57 µM
22 | Fc1cc(F)c(F)c(-c2c3nc(c4ccc([nH]4)c(-c4c(F)c(F)cc(F)c4F)c4ccc([nH]4)c(-c4ccccc4)c4ccc2[nH]4)C=C3)c1F | 22.3 µM | 6.6 µM | 3.38 | – | – | – | –
23 | Fc1cc(-c2c3nc(c4ccc([nH]4)c(-c4cc(F)c(F)c(F)c4F)c4ccc([nH]4)c(-c4cc(F)c(F)c(F)c4F)c4ccc2[nH]4)C=C3)c(F)c(F)c1F | > 50 µM | 6.42 µM | > 7 | – | – | – | IC50 (Human betaherpesvirus 5 [16]): 3.71 µM; selectivity ratio at 144 h [17]: > 13

From ChEMBL document CHEMBL4699427, “A3- and A2B-fluorocorroles: synthesis, X-ray characterization and antiviral activity evaluation against human cytomegalovirus infection” (RSC Med Chem, 2020)
